Experimental data: patent US20110256121A1, “METHODS AND KITS FOR DIAGNOSING OR MONITORING AUTOIMMUNE AND CHRONIC INFLAMMATORY DISEASES” (THE REGENTS OF THE UNIVERSITY OF MICHIGAN, priority 2008, published 2011)
Like-named read-outs stand apart in the source and are kept apart here.

Columns and labels:
TT48E = conditions: 6 experiments
CD70 promoter = assay: Bisulfite sequencing of the CD70 promoter in CD4+ T cells; assay type: cell-based, human; conditions: anti-CD3 and anti-CD28 stimulated CD4+ T cells vs stimulated untreated controls
Method: (§1) In other studies, T cells were isolated by negative selection using magnetic beads and instructions provided by the manufacturer (Pan T cell Isolation Kit, Miltenyi), and the CD4+ or CD8+ subset was similarly isolated by magnetic cell sorting. Jurkat cells (E6-1) were cultured as previously described (See, e.g., Cornacchia et al., J Immunol 140:2197 (1998)). Purified human CD4+ T cells were first stimulated with plate bound anti-CD3 and soluble anti-CD28. Briefly, 24 well plates were coated with 300 μl of anti-CD3 (10 μg/ml in PBS—SouthernBiotech) 18 hours 4° C., washed, then 2×10^6 purified T cells were added to the wells in 2 ml RPMI 1640/10% FCS containing 2 μg/ml anti-CD28 (SouthernBiotech). The plates were incubated 37° C. in a humidified atmosphere containing 5% CO2 for 18-24 hours, then treated with 5 μm 5-azaC (Aldrich), 50 μm Pca (Sigma), 20 μm Hyd (Aldrich), 40 μm UO126 (Promega) or 25 μm PD98059 (Promega), and cultured for 3 additional days as described (See, e.g., Oelke et al., Arthritis Rheum 50:1850 (2004)).
Bisulfite sequencing. The putative CD70 promoter was identified using the published CD70 cDNA sequence and Tfsitescan software. Deoxycytosine (dC) and deoxymethylcytosine (d^mC) bases in the gene promoter and 5′ flanking sequences were identified by bisulfite treatment of purified DNA followed by nested PCR amplification of 3 sequential fragments to span the entire region. The primers were designed to avoid CG pairs and to account for the conversion of dC to dU by the bisulfite. EcoRI sites were added to the forward primers, and XbaI to the reverse, to facilitate cloning. The amplified fragments were then cloned into PBS+, and 5 clones sequenced for each fragment. The primers used were: […]
The effect of lupus and DNA methylation inhibitors on a regulatory element in the CD70 promoter was examined. DNA was isolated from the CD4+ T cells of 7 healthy individuals or 6 lupus patients, bisulfite treated, the region from −466-−515, containing 6 CG pairs was amplified by PCR, and 5 fragments sequenced from each individual. The average methylation status of the 6 CG pairs for healthy versus lupus individuals is shown (FIG. 8, NI and Lupus, respectively). CD4+ T cells from 5 individuals were also stimulated with PHA, treated with the irreversible DNA methyltransferase inhibitor 5-azacytidine (5-azaC), and the methylation status of the 6 CG pairs similarly analyzed from the 25 fragments sequenced (FIG. 8, 5-azaC). […] Results are presented as the mean±SEM of the average methylation of the 6 CG pairs, measured from the 10-35 determinations/group.
The effects of the DNA methylation inhibitors on the methylation status of this region were then compared. […] Again, 5 cloned fragments were sequenced from each control, for a total of 35 determinations per CG pair. […] FIG. 14 compares the average methylation for the 10 CG pairs (−515 to −423) in the T cells treated with DNA methylation inhibitors relative to stimulated, untreated controls.

[1] = system: CD70-dependent B cell help; assay: T cell and B cell costimulation assay with PWM, IgG ELISA; assay type: cell-based, human; conditions: 8 days, P<0.05
Method: T cell and B cell costimulation assays. E-rosette-purified T cells were stimulated for 16 hours with PHA and then treated with the indicated chemicals for an additional 72 hours as described above. Where indicated, T cell subsets were isolated by negative selection using magnetic beads (Miltenyi). B cells (1-4×10^5) enriched by negative selection using magnetic beads (Miltenyi) and assessed to be 70-85% pure using PE-conjugated anti-human CD21 (PharMingen), were added to washed, drug-treated autologous T cells, at T cell to B cell ratios of 4:1, 2:1, 1:1, 1:2, and 1:4. Where indicated, 0.625 μg/ml of PWM (Aldrich) was added. The cells were cultured in RPMI 1640/10% FBS/penicillin/streptomycin for 8 days in 96-well roundbottomed plates (Costar) containing a 200 μl total volume (performed in duplicate). Cells were supplemented with 50 μl of medium on day 4. […]
IgG enzyme-linked immunosorbent assays (ELISAs). […] Serial dilutions of purified human IgG (Sigma) were used for quantitation. […] The plates were read at 405 nm using a SpectraMax spectrophotometer (Molecular Devices). […]
Since CD70 participates in T cell-dependent B cell stimulation (See e.g., Kobata et al., Proc Natl Acad Sci USA 92, 11249 (1995)), the effects of DNA methylation inhibitors on CD70-dependent B cell help were examined. […] Eight days later, total IgG in the supernatants was measured by ELISA. […]

CD70 mRNA [2] = assay: CD70 transcripts by real time RT-PCR in anti-CD3 + anti-CD28 stimulated CD4+ T cells; assay type: cell-based, human; conditions: 5 μm 5-azaC, 50 μm Pca, 20 μm Hyd, 40 μm U0126, 25 μm PD98059, 3 days
Method: as §1

CD70 mRNA [3] = conditions: treated vs untreated T cells, real time RT-PCR

| SMILES | increase of CD70 expression on TT48E (TT48E; 1 μM 5-azaC, 3 days, P=0.048) [fold] | methylation of the 10 CG pairs between −515 and −423 of the CD70 promoter (CD70 promoter) | IgG secreted by B cells cultured with drug-treated T cells vs untreated T cells [1] | CD70 transcripts relative to β-actin, treated vs untreated (CD70 mRNA [2]) | CD70 mRNA relative to beta-actin (CD70 mRNA [3]) | increase of CD70 expression on TT48E (TT48E; 40 μM U0126, 3 days, P=0.004) [fold] |
| --- | --- | --- | --- | --- | --- | --- |
| Nc1ncn([C@@H]2O[C@H](CO)[C@@H](O)[C@H]2O)c(=O)n1 [5-azaC, 5-azacytidine] | 1.69±0.33 | hypomethylated compared to controls | secreted greater amounts of IgG | increase CD70 transcripts | increased the expression of CD70 mRNA | – |
| N#CC(=C(/N)Sc1ccccc1N)/C(C#N)=C(\N)Sc1ccccc1N [U0126] | – | appears to demethylate | secreted greater amounts of IgG | increase CD70 transcripts | increased the expression of CD70 mRNA | 1.87±0.37 |
